Measured values published in ChEMBL document CHEMBL1141786, “Microbial transformation of curvularin” (J Nat Prod, 2005).
The source made the active and inactive calls.

What was measured:
Assay type in all cases: functional, cell-based
[1] = test system: NCI-H460; assay: Cytotoxicity against human NCI-H460 cells upto 10 ug/mL by MTT assay
[2] = test system: MCF7; assay: Cytotoxicity against human MCF7 cells upto 10 ug/mL by MTT assay
[3] = test system: SF-268; assay: Cytotoxicity against human SF268 cells upto 10 ug/mL by MTT assay

Measured: Activity

CO[C@H]1[C@H](O)[C@@H](O)[C@H](Oc2c(O)cc3c(c2O)C(=O)CCCCC[C@H](C)OC(=O)C3)O[C@@H]1CO
inactive: [1] | [2] | [3]

C[C@H]1CCCCCC(=O)c2c(cc(O)cc2O[C@@H]2O[C@H](CO)[C@@H](O)[C@H](O)[C@H]2O)CC(=O)O1
inactive: [1] | [2] | [3]

CO[C@H]1[C@H](O)[C@@H](O)[C@H](Oc2cc(O)cc3c2C(=O)CCCCC[C@H](C)OC(=O)C3)O[C@@H]1CO
inactive: [1] | [2] | [3]
